Measurements published in the supplement of paper PMC4954754.

What follows are compounds tested on HEK293T-Rex XBP1-RLuc (assay: EC50 for XBP1-RLuc reporter activation). Conditions: 18 h.
Description: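 Dose-response of hit compounds in HEK293T-Rex cells stably expressing ERSE-FLuc or XBP1-RLuc reporters, 18 hr treatment, 1536-well; luminescence normalised to 500 nM thapsigargin (100%) and DMSO (0%), fitted to give EC50 (M) and maximal activation; '>' marks EC50 above the top tested dose (~17 µM).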
`Cc1nn(-c2ccc(F)cc2)c2ncc(C(=O)NCc3ccco3)c(Cl)c12` was tested, and the “EC50 for XBP1-RLuc reporter activation” value was 12.6 µM. `COCCNC(=O)c1cc(-c2cccs2)on1` was tested, and the “EC50 for XBP1-RLuc reporter activation” value was over 16.9 µM. In the case of `COc1ccc(C(=O)Nc2nnc(-c3cccs3)s2)cc1`, the “EC50 for XBP1-RLuc reporter activation” value was over 16.9 µM. With `CCOc1cc(C2C(C(=O)OC3CCCCC3)=C(C)NC3=C2C(=O)CC(c2ccc(OC)cc2)C3)cc(Br)c1O` (stereo unspecified) the “EC50 for XBP1-RLuc reporter activation” value was 5.3 µM. For `Cc1ccc(/C=N/NC(=O)c2cccc(F)c2)cc1`, the “EC50 for XBP1-RLuc reporter activation” value was over 16.9 µM. With `Oc1ccc(-c2csc(-c3cccnc3)n2)cc1O` the “EC50 for XBP1-RLuc reporter activation” value was 12.8 µM. With `Oc1cccc(/C=N/Nc2ccc(Cl)nn2)c1O` the “EC50 for XBP1-RLuc reporter activation” value was over 17.9 µM. In the case of `CCN1C(=O)/C(=C\c2ccc(O)cc2O)SC1=S`, the “EC50 for XBP1-RLuc reporter activation” value was over 16.9 µM. In the case of `COc1ccc(-n2nnnc2SCC(N)=O)c(OC)c1`, the “EC50 for XBP1-RLuc reporter activation” value was over 16.9 µM. With `CCOc1ccc(NC(=O)c2cccc(F)c2)c([N+](=O)[O-])c1` the “EC50 for XBP1-RLuc reporter activation” value was over 14.3 µM. `CC(C)CC(c1nnnn1C1CCCC1)N1CCN(C(=O)c2ccco2)CC1` (stereo unspecified) was tested, and the “EC50 for XBP1-RLuc reporter activation” value was over 16.9 µM. For `O=C(COC(=O)c1cc(O)c(O)c(O)c1)Nc1ccc(Br)cc1F`, the “EC50 for XBP1-RLuc reporter activation” value was over 16.9 µM. `N#C/C(=C\c1ccc(O)c(O)c1)C(=O)Nc1ccccc1` was tested, and the “EC50 for XBP1-RLuc reporter activation” value was over 33.8 µM. For `O=[N+]([O-])c1ccc(/C=C/c2ccc(O)cc2)cc1`, the “EC50 for XBP1-RLuc reporter activation” value was 12.4 µM. `Cc1ccc(O)c(N/C=C/C(=O)c2cccs2)c1` was tested, and the “EC50 for XBP1-RLuc reporter activation” value was 10 µM. In the case of `CN(C)c1ccc(C2C(C#N)=C(N)Oc3c2sc2ccccc32)cc1[N+](=O)[O-]` (stereo unspecified), the “EC50 for XBP1-RLuc reporter activation” value was over 17.2 µM. With `N#Cc1c(NC(=O)c2cnccn2)sc2c1CCCC2` the “EC50 for XBP1-RLuc reporter activation” value was over 17.9 µM. With `C/C(=N\NC(=O)c1n[nH]c2c1CCCC2)c1ccc2ccccc2c1` the “EC50 for XBP1-RLuc reporter activation” value was over 16.9 µM. In the case of `COc1ccccc1/C=N/Nc1nc(-c2ccccc2)cc(=O)[nH]1`, the “EC50 for XBP1-RLuc reporter activation” value was over 16.9 µM. For `Cc1ccc(/C=C(\C#N)C(=O)Nc2cccc(Cl)c2)o1`, the “EC50 for XBP1-RLuc reporter activation” value was over 16.9 µM. In the case of `COc1ccccc1-c1nnc(Nc2nc3c(OC)cccc3s2)o1`, the “EC50 for XBP1-RLuc reporter activation” value was over 16.9 µM. With `Cc1cc(C)nc(/N=C(\N)Nc2ccc(OCCC(C)C)cc2)n1` the “EC50 for XBP1-RLuc reporter activation” value was over 5.17 µM. With `Cc1ccc(O)c(N=CC2=C(O)c3ccccc3C2=O)c1` the “EC50 for XBP1-RLuc reporter activation” value was over 16.9 µM. In the case of `Cn1cccc1/C=C1/SC(=Nc2ccccc2)NC1=O`, the “EC50 for XBP1-RLuc reporter activation” value was over 16.7 µM. For `COc1cccc(/C=N/NC(=O)c2ccc(NC(=O)c3ccc(C)cc3)cc2)c1O`, the “EC50 for XBP1-RLuc reporter activation” value was over 16.9 µM. With `CC(=O)Nc1ccc2nc(-c3ccc(OC(C)=O)cc3)sc2c1` the “EC50 for XBP1-RLuc reporter activation” value was 11.3 µM. In the case of `O=C1N/C(=C\c2ccc(O)cc2)C(O)=C1C=NCc1ccccc1`, the “EC50 for XBP1-RLuc reporter activation” value was 2.96 µM. With `NN1C(=O)/C(=C/c2ccc(O)c(O)c2)SC1=S` the “EC50 for XBP1-RLuc reporter activation” value was over 16.9 µM. For `N#Cc1c(NC(=O)c2cccc(F)c2)sc2c1CCC2`, the “EC50 for XBP1-RLuc reporter activation” value was over 16.5 µM. For `COc1ccc(NC(=O)/C(Cl)=C\c2ccccc2)cc1`, the “EC50 for XBP1-RLuc reporter activation” value was over 16.9 µM. For `COc1cccc(C2=NOC(C(=O)Nc3cc(C)ccc3O)C2)c1` (stereo unspecified), the “EC50 for XBP1-RLuc reporter activation” value was over 16.9 µM. With `Cc1ccc(/C=N/NC(=O)c2cccc(Cl)c2)cc1` the “EC50 for XBP1-RLuc reporter activation” value was over 16.9 µM. With `NC(=O)c1c(NC(=O)COc2ccccc2)sc2c1CCC2` the “EC50 for XBP1-RLuc reporter activation” value was over 13.2 µM. For `Oc1ccc(-c2cnc3c(Nc4ccc5[nH]ccc5c4)nccn23)cc1`, the “EC50 for XBP1-RLuc reporter activation” value was over 16.9 µM. `N#Cc1c(NC(=O)c2ccc3ncsc3c2)sc2c1CCC2` was tested, and the “EC50 for XBP1-RLuc reporter activation” value was over 16.6 µM. In the case of `CCCNC(=O)c1ccc2nc(-c3ccc4[nH]ccc4c3)sc2c1`, the “EC50 for XBP1-RLuc reporter activation” value was over 17.4 µM. With `CCOc1ccc(NC(=O)c2ccc3c(c2)OCO3)c([N+](=O)[O-])c1` the “EC50 for XBP1-RLuc reporter activation” value was over 18.6 µM. `CNC(=O)c1ccccc1Nc1cc(NC(=O)Cc2ccc(F)c(F)c2)ncc1C(F)(F)F` was tested, and the “EC50 for XBP1-RLuc reporter activation” value was over 16.9 µM. For `COc1cccc(C(=O)Nc2nc3ccc(C)cc3s2)c1`, the “EC50 for XBP1-RLuc reporter activation” value was over 20.6 µM. `CCc1ccc(NC(=O)/C=C/c2ccco2)cc1` was tested, and the “EC50 for XBP1-RLuc reporter activation” value was over 16.8 µM. With `COC(=O)c1ccc2c(COC(C)=O)c(OC(C)=O)ccc2c1COC(C)=O` the “EC50 for XBP1-RLuc reporter activation” value was over 16.9 µM. For `O=C1NC(=Nc2ccc(F)cc2)S/C1=C\c1ccc(O)c(O)c1`, the “EC50 for XBP1-RLuc reporter activation” value was 12.4 µM. `CC1(C)Cc2ccccc2/C(=C/C(=O)C(=O)N/N=C/c2ccc(O)c(O)c2)N1` was tested, and the “EC50 for XBP1-RLuc reporter activation” value was 6.13 µM. With `COc1cc(/C=C/c2ccc(O)c(OC)c2)ccc1O` the “EC50 for XBP1-RLuc reporter activation” value was 8.73 µM. In the case of `O=C(N/N=C/c1ccc(O)c(O)c1)c1ccc(Br)cc1`, the “EC50 for XBP1-RLuc reporter activation” value was 16.8 µM. In the case of `O=C(Nc1ccccc1O)c1ccc(NS(=O)(=O)c2cccc3cccnc23)cc1`, the “EC50 for XBP1-RLuc reporter activation” value was over 16.9 µM. In the case of `O=C(N/N=C/c1ccc(Cl)cc1Cl)c1ccc(O)c(O)c1`, the “EC50 for XBP1-RLuc reporter activation” value was over 16.9 µM. For `COc1ccccc1OCC(=O)Nc1cc(C)ccc1O`, the “EC50 for XBP1-RLuc reporter activation” value was over 16.9 µM. With `O=C(N/N=C\c1ccccc1[N+](=O)[O-])c1[nH]nc2c1CCc1ccccc1-2` the “EC50 for XBP1-RLuc reporter activation” value was over 16.9 µM. With `CCCNC(=O)c1cc(-c2ccc(F)cc2)on1` the “EC50 for XBP1-RLuc reporter activation” value was over 16.9 µM. `O=C(c1ccccc1)c1c(O)ccc2c(C(=O)c3ccccc3)c(O)ccc12` was tested, and the “EC50 for XBP1-RLuc reporter activation” value was over 12.5 µM. `COc1ccccc1-c1cc(C(=O)Nc2cc(C)ccc2O)no1` was tested, and the “EC50 for XBP1-RLuc reporter activation” value was over 16.9 µM. For `O=C(CCCN1CCC2(CC1)C(=O)N(Cc1cccc(F)c1)CN2c1ccccc1)c1ccc(F)cc1`, the “EC50 for XBP1-RLuc reporter activation” value was 4.02 µM. In the case of `O=C(NCCc1ccc(O)cc1)c1ccc2nc(-c3csc4ccccc34)sc2c1`, the “EC50 for XBP1-RLuc reporter activation” value was 13.3 µM. `O=c1/c(=C/c2ccc(O)c(O)c2)sc2nc3ccccc3n12` was tested, and the “EC50 for XBP1-RLuc reporter activation” value was over 16.9 µM. In the case of `COc1cccc(C(=O)Nc2sc3c(c2C#N)CC(C)CC3)c1` (stereo unspecified), the “EC50 for XBP1-RLuc reporter activation” value was over 16.6 µM. `O=C(N/N=C/c1ccc(Cl)cc1)c1n[nH]c2c1CCCC2` was tested, and the “EC50 for XBP1-RLuc reporter activation” value was over 16.9 µM. With `COc1ccc2[nH]c3c(N4CCCCC4)ncnc3c2c1` the “EC50 for XBP1-RLuc reporter activation” value was over 17.1 µM. `O=C(Nc1ccc(O)cc1)c1ccc2ccccc2c1` was tested, and the “EC50 for XBP1-RLuc reporter activation” value was over 16.9 µM. For `N#CC1=C(N)Oc2c(ccc3ccccc23)C1c1ccsc1` (stereo unspecified), the “EC50 for XBP1-RLuc reporter activation” value was over 18.3 µM. With `Cc1ccc(C(=O)Nc2sc3c(c2C#N)CCC3)cc1` the “EC50 for XBP1-RLuc reporter activation” value was over 16.7 µM. In the case of `CCCCCOc1ccc(N/C(N)=N/c2nc(C)cc(C)n2)cc1`, the “EC50 for XBP1-RLuc reporter activation” value was 4.05 µM. With `CCCCCC(=O)Nc1ccc(C(=O)Nc2ccccc2O)cc1` the “EC50 for XBP1-RLuc reporter activation” value was over 15.6 µM. With `O=C(Nc1ccccc1O)c1cc2ccccc2o1` the “EC50 for XBP1-RLuc reporter activation” value was over 21 µM. `Nc1ccccc1NC(=O)c1ccc(C(=O)Nc2ccccc2N)cc1` was tested, and the “EC50 for XBP1-RLuc reporter activation” value was over 9.59 µM. In the case of `CCCCNNC(=O)c1ccc(Br)cc1`, the “EC50 for XBP1-RLuc reporter activation” value was over 17.4 µM. For `O=C(N/N=C/c1cccc(O)c1O)c1ccccc1I`, the “EC50 for XBP1-RLuc reporter activation” value was over 16.9 µM. For `CCOc1ccc(/C=C(\C#N)c2[nH]nc(N)c2C#N)cc1OCC`, the “EC50 for XBP1-RLuc reporter activation” value was over 16.9 µM. For `COc1cccc(-c2nc3ccc(N)cc3[nH]2)c1`, the “EC50 for XBP1-RLuc reporter activation” value was over 16.9 µM. `COc1cc2ccccc2cc1C(=O)N/N=C/c1cccs1` was tested, and the “EC50 for XBP1-RLuc reporter activation” value was over 16.9 µM. With `Cc1ccc(O)c(NC(=O)c2cc(-c3ccc(O)cc3)on2)c1` the “EC50 for XBP1-RLuc reporter activation” value was over 16.9 µM. For `CN(C)c1ccc(/C=N/NC(=O)c2cccc(Br)c2)cc1`, the “EC50 for XBP1-RLuc reporter activation” value was over 16.9 µM. `O=C(CCCCCCC(=O)Nc1ccccc1)NO` was tested, and the “EC50 for XBP1-RLuc reporter activation” value was over 16.9 µM. `CC(=O)NC1C(OC2OC(CC(O)C3OC(n4ccc(=O)[nH]c4=O)C(O)C3O)C(O)C(O)C2NC(=O)/C=C\CCCCCCCCCC(C)C)OC(CO)C(O)C1O` (stereo unspecified) was tested, and the “EC50 for XBP1-RLuc reporter activation” value was over 16.9 µM. `CC(Oc1ccc(Cl)cc1Cl)C(=O)NNC(=O)c1ccc(O)c(O)c1` (stereo unspecified) was tested, and the “EC50 for XBP1-RLuc reporter activation” value was over 14.9 µM. With `Cc1ccc2c(N)c(C(=O)c3ccc4c(c3)OCO4)sc2n1` the “EC50 for XBP1-RLuc reporter activation” value was over 16.9 µM. For `CCCNc1ccnc(N2CCc3ccccc3C2)n1`, the “EC50 for XBP1-RLuc reporter activation” value was over 17.7 µM. In the case of `O=C(NCCc1ccccc1)c1cc(-c2cccs2)on1`, the “EC50 for XBP1-RLuc reporter activation” value was over 16.9 µM. With `Cc1ccc(O)c(NC(=S)NC(=O)/C=C/c2ccco2)c1` the “EC50 for XBP1-RLuc reporter activation” value was over 16.9 µM. In the case of `COc1cccc(-c2cc(C(=O)Nc3cc(C)ccc3O)no2)c1`, the “EC50 for XBP1-RLuc reporter activation” value was over 16.9 µM. For `Cc1ccc(O)c(NC(=O)CSc2n[nH]c(C)c2[N+](=O)[O-])c1`, the “EC50 for XBP1-RLuc reporter activation” value was over 16.9 µM. In the case of `COc1cccc(/C=N/NC(=O)c2n[nH]c3c2CCCC3)c1`, the “EC50 for XBP1-RLuc reporter activation” value was over 16.9 µM. `O=C(N/N=C/c1cccc(Cl)c1Cl)c1ccccc1O` was tested, and the “EC50 for XBP1-RLuc reporter activation” value was over 16.9 µM. `COc1ccc(-c2csc(-c3ccc(O)cc3)n2)cc1` was tested, and the “EC50 for XBP1-RLuc reporter activation” value was over 19.1 µM. In the case of `N#C/C(=C/c1ccc(O)c(O)c1)c1nc2ccccc2[nH]1`, the “EC50 for XBP1-RLuc reporter activation” value was over 16.9 µM. `COc1cccc(Nc2nc(-c3ccc(OC)c(F)c3)cs2)c1` was tested, and the “EC50 for XBP1-RLuc reporter activation” value was over 16.9 µM.
